The text below walks through data of patent US20040142910A1, “Sulfonated styrene copolymers for medical uses” (Aegis Biosciences LLC, priority 2002, published 2004).

The subject of one data set is endothelial cells (ECs). Description: EC tube formation in response to bFGF. Format: cell-based. The procedure: (§1) Angiogenesis is a complex process that involves the activation of quiescent endothelial cells (ECs) to a proliferative and migratory phenotype and, subsequently, their redifferentiation to form vascular tubes. We hypothesized that NO contributes to angiogenesis by terminating the proliferative action of angiogenic growth factors and initiating a genetic program of EC differentiation. Human umbilical vein ECs (HUVECs) and calf pulmonary artery ECs (CPAECs) were grown directly on plastic dishes or on three-dimensional fibrin matrices. […] The addition of basic fibroblast growth factor (bFGF, […]) increased the expression of endothelial NO synthase mRNA and the production of NO in both cell types when cultured on three-dimensional fibrin gels and produced profound morphological changes characterized by the appearance of extensive capillary-like vascular structures and the loss of EC monolayers. These changes were quantified by measuring total tube length per low-power field (X 100), and a differentiation index was derived using the ratio of tube length over area covered by residual EC monolayer. In the absence of additional angiogenic factors, the differentiation index was low for both HUVECs and CPAECs (control, 1.16plus or minus0.19 and 2.07plus or minus0.87, respectively).

For data set [1], the system named is calf pulmonary artery ECs (CPAECs). Description: endothelial cell proliferation in the absence of fibrin. To be noted: SNAP 0.1 and 0.4 mmol/L, L-NAME, L-NMMA 1 mmol/L. Format: cell-based. The method, then: as §1
Data set [2] deals with Human umbilical vein ECs (HUVECs). Nature of the data set: EC differentiation on three-dimensional fibrin gels. The class given is cell-based. To be noted: bFGF 30 ng/nL. The method, then: as §1
Data set [3] has as its system calf pulmonary artery ECs (CPAECs). The description is as above. To be noted: bFGF 30 ng/nL. The class given is cell-based. The procedure: as §1
Data set [4] deals with Human umbilical vein ECs (HUVECs). Nature of the data set: endothelial cell proliferation in the absence of fibrin. The class given is cell-based. To be noted: SNAP 0.1 and 0.4 mmol/L. The procedure:
as §1

For data set [5] the following is noted: treatment of asthma; cited from earlier work.

For the compound `COC(=O)[C@@H](N)CCCNC(=N)N[N+](=O)[O-]` [L-NAME, N(G)-nitro-L-arginine methyl ester], in the data set on endothelial cells (ECs), the “EC tube formation in response to bFGF” value is “inhibited EC tube formation”. Moreover, the proliferation entry in data set [1] was “significantly increased”. Take bFGF: basic fibroblast growth factor: the “expression of endothelial NO synthase mRNA and production of NO” value in data set [2] and in data set [3] was “increased” throughout.

As for `CNC(=N)NCCC[C@H](N)C(=O)O` [L-NMMA, N(G)-monomethyl-L- arginine], in data set [1], the proliferation result was “significantly increased”. Turning to `CC(=O)N[C@H](C(=O)O)C(C)(C)SN=O` (racemic) [SNAP, S-nitroso-N-acetylpenicillamine], the proliferation entry in data set [4] and in data set [1] was “dose-dependent inhibition” each time. For the compound `Cn1c(=O)c2[nH]cnc2n(C)c1=O` [theophylline], in data set [5], the “minimum effective blood concentrations” value is 6 to 10 µg/mL.
